Tested on: PDC KRAS tumor spheroids with HUVEC/MSC, viability
Assay: Anticancer human tumor 349418-098-R-PDC patient-derived lung adenocarcinoma cell line growth inhibition [KRAS2]
Conditions: for IC50: curve of first compound; for viability, T/C: stronger effect = lower value
How it was run: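 KRAS-mutant tumor cells were grown as spheroids with HUVEC endothelial cells and human MSCs as stroma. Targeted agents were tested alone and with KRAS pathway inhibitors. Doses started at or near clinical Cmax, or 10 microM, descending half-log.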

[1] = second compound 0.1 µM, first compound 0.0316 µM
[2] = second compound 0.1 µM, first compound 0.1 µM
[3] = second compound 0.1 µM, first compound 0.316 µM
[4] = second compound 0.1 µM, first compound 1 µM
[5] = second compound 0.1 µM, first compound 3.16 µM
[6] = second compound 0.1 µM, first compound 10 µM
[7] = second compound 0.316 µM, first compound 0.0316 µM
[8] = second compound 0.316 µM, first compound 0.1 µM
[9] = second compound 0.316 µM, first compound 0.316 µM
[10] = second compound 0.316 µM, first compound 1 µM
[11] = second compound 0.316 µM, first compound 3.16 µM
[12] = second compound 0.316 µM, first compound 10 µM
[13] = second compound 1 µM, first compound 0.0316 µM
[14] = second compound 1 µM, first compound 0.1 µM
[15] = second compound 1 µM, first compound 0.316 µM
[16] = second compound 1 µM, first compound 1 µM
[17] = second compound 1 µM, first compound 3.16 µM
[18] = second compound 1 µM, first compound 10 µM
[19] = second compound 3.16 µM, first compound 0.0316 µM
[20] = second compound 3.16 µM, first compound 0.1 µM
[21] = second compound 3.16 µM, first compound 0.316 µM
[22] = second compound 3.16 µM, first compound 1 µM
[23] = second compound 3.16 µM, first compound 3.16 µM
[24] = second compound 3.16 µM, first compound 10 µM
[25] = second compound 10 µM, first compound 0.0316 µM
[26] = second compound 10 µM, first compound 0.1 µM
[27] = second compound 10 µM, first compound 0.316 µM
[28] = second compound 10 µM, first compound 1 µM
[29] = second compound 10 µM, first compound 3.16 µM
[30] = second compound 10 µM, first compound 10 µM
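Also: spheroids exposed to compounds for seven days before readout.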

`COc1cc(Nc2ncc3c(n2)-c2ccc(Cl)cc2C(c2c(F)cccc2OC)=NC3)ccc1C(=O)O` + CNCc1ccccc1-c1csc(C(C)Nc2nc(C)nc3cc(OC)c(OC)cc23)c1 showed an IC50 (second compound 0.1 µM) of less than 0.0316 µM, an IC50 (second compound 0.316 µM) of less than 0.0316 µM and an IC50 (second compound 1 µM) of less than 0.0316 µM. For the same molecule, the IC50 (second compound 3.16 µM) was less than 0.0316 µM, the IC50 (second compound 10 µM) was less than 0.0316 µM and the viability, T/C [1] was 51.9%. The viability, T/C [2] was 26.1%, the viability, T/C [3] was 38.8% and the viability, T/C [4] was 36.7%. For the same molecule, the viability, T/C [5] was 32.7%, the viability, T/C [6] was 24.8% and the viability, T/C [7] was 51.1%. It also gave a viability, T/C [8] of 26.1%, a viability, T/C [9] of 35.7% and a viability, T/C [10] of 32.2%. For the same molecule, the viability, T/C [11] was 32.8%, the viability, T/C [12] was 28.8% and the viability, T/C [13] was 40.2%. It also gave a viability, T/C [14] of 23.6%, a viability, T/C [15] of 32.4% and a viability, T/C [16] of 26.8%. The viability, T/C [17] was 25.9%, the viability, T/C [18] was 26.7% and the viability, T/C [19] was 0.15%. It also gave a viability, T/C [20] of 0.11%, a viability, T/C [21] of 0.14% and a viability, T/C [22] of 0.14%. It also gave a viability, T/C [23] of 0.08%, a viability, T/C [24] of 0.29% and a viability, T/C [25] of 0.08%. The viability, T/C [26] was 0.07%, the viability, T/C [27] was 0.08% and the viability, T/C [28] was 0.08%. The viability, T/C [29] was 0.08% and the viability, T/C [30] was 0.13%.

For `CC1OCC2(CCN(c3cnc(Sc4ccnc(N)c4Cl)c(N)n3)CC2)C1N` (stereo not given) + C=CC(=O)N1CCN(c2nc(=O)n(-c3c(C)ccnc3C(C)C)c3nc(-c4c(O)cccc4F)c(F)cc23)C(C)C1, the IC50 (second compound 0.1 µM) was greater than 10 µM, the IC50 (second compound 0.316 µM) was greater than 10 µM and the IC50 (second compound 1 µM) was greater than 10 µM. For the same molecule, the IC50 (second compound 3.16 µM) was greater than 10 µM, the IC50 (second compound 10 µM) was less than 0.0316 µM and the viability, T/C [1] was 109%. The viability, T/C [2] was 79.5%, the viability, T/C [3] was 110% and the viability, T/C [4] was 90%. It also gave a viability, T/C [5] of 76%, a viability, T/C [6] of 74.5% and a viability, T/C [7] of 87.3%. The viability, T/C [8] was 94.9%, the viability, T/C [9] was 90.2% and the viability, T/C [10] was 100%. The viability, T/C [11] was 96.4%, the viability, T/C [12] was 78.5% and the viability, T/C [13] was 82%. The viability, T/C [14] was 106%, the viability, T/C [15] was 96.3% and the viability, T/C [16] was 78.6%. For the same molecule, the viability, T/C [17] was 95.5%, the viability, T/C [18] was 73.8% and the viability, T/C [19] was 70.2%. The viability, T/C [20] was 71.1%, the viability, T/C [21] was 72.6% and the viability, T/C [22] was 63.2%. The viability, T/C [23] was 68%, the viability, T/C [24] was 60.2% and the viability, T/C [25] was 30.3%. For the same molecule, the viability, T/C [26] was 33.1%, the viability, T/C [27] was 23.9% and the viability, T/C [28] was 25%. It also gave a viability, T/C [29] of 28% and a viability, T/C [30] of 21.9%.

For `CCNC(=O)CC1N=C(c2ccc(Cl)cc2)c2cc(OC)ccc2-n2c(C)nnc21` (stereo not given) + CC1OCC2(CCN(c3cnc(Sc4ccnc(N)c4Cl)c(N)n3)CC2)C1N, the IC50 (second compound 0.1 µM) was 0.112 µM, the IC50 (second compound 0.316 µM) was 0.133 µM and the IC50 (second compound 1 µM) was 0.148 µM. For the same molecule, the IC50 (second compound 3.16 µM) was 0.183 µM, the IC50 (second compound 10 µM) was 0.196 µM and the viability, T/C [1] was 106%. It also gave a viability, T/C [2] of 50.3%, a viability, T/C [3] of 28.4% and a viability, T/C [4] of 11.3%. It also gave a viability, T/C [5] of 3.22%, a viability, T/C [6] of 1.09% and a viability, T/C [7] of 103%. For the same molecule, the viability, T/C [8] was 58.8%, the viability, T/C [9] was 23.6% and the viability, T/C [10] was 10.1%. It also gave a viability, T/C [11] of 2.91%, a viability, T/C [12] of 1.3% and a viability, T/C [13] of 136%. For the same molecule, the viability, T/C [14] was 60.9%, the viability, T/C [15] was 28.8% and the viability, T/C [16] was 8.35%. For the same molecule, the viability, T/C [17] was 2.56%, the viability, T/C [18] was 1.67% and the viability, T/C [19] was 103%. For the same molecule, the viability, T/C [20] was 73.9%, the viability, T/C [21] was 27.6% and the viability, T/C [22] was 10.3%. It also gave a viability, T/C [23] of 2.56%, a viability, T/C [24] of 1.16% and a viability, T/C [25] of 109%. It also gave a viability, T/C [26] of 80%, a viability, T/C [27] of 28.3% and a viability, T/C [28] of 7.82%. The viability, T/C [29] was 2.1% and the viability, T/C [30] was 0.96%.

Molecule `CC1COCCN1c1cc(-c2ccnn2C)c2ccnc(-c3ccn[nH]3)c2n1` (stereo not given) + COc1cc2nc(C)nc(NC(C)c3cc(N)cc(C(F)(F)F)c3)c2cc1OC1CCOC1 has an IC50 (second compound 0.1 µM) of less than 0.01 µM, an IC50 (second compound 0.316 µM) of 0.0438 µM and an IC50 (second compound 1 µM) of 0.0485 µM. It also gave an IC50 (second compound 3.16 µM) of 0.0427 µM, an IC50 (second compound 10 µM) of less than 0.01 µM and a viability, T/C (second compound 0.1 µM, first compound 0.01 µM) of 5.36%. It also gave a viability, T/C [1] of 8.3%, a viability, T/C [2] of 5.7% and a viability, T/C [3] of 5.49%. It also gave a viability, T/C [4] of 6%, a viability, T/C [5] of 5.72% and a viability, T/C (second compound 0.316 µM, first compound 0.01 µM) of 170%. For the same molecule, the viability, T/C [7] was 65.5%, the viability, T/C [8] was 10.9% and the viability, T/C [9] was 6.49%. The viability, T/C [10] was 5.47%, the viability, T/C [11] was 7.16% and the viability, T/C (second compound 1 µM, first compound 0.01 µM) was 167%. For the same molecule, the viability, T/C [13] was 71.2%, the viability, T/C [14] was 13.9% and the viability, T/C [15] was 11.7%. For the same molecule, the viability, T/C [16] was 7.84%, the viability, T/C [17] was 7.72% and the viability, T/C (second compound 3.16 µM, first compound 0.01 µM) was 146%. It also gave a viability, T/C [19] of 63.1%, a viability, T/C [20] of 12.8% and a viability, T/C [21] of 7.88%. The viability, T/C [22] was 6.55%, the viability, T/C [23] was 9.36% and the viability, T/C (second compound 10 µM, first compound 0.01 µM) was 36.6%. For the same molecule, the viability, T/C [25] was 14.1%, the viability, T/C [26] was 8.5% and the viability, T/C [27] was 6.86%. The viability, T/C [28] was 7.4% and the viability, T/C [29] was 5.53%.

`O=C(c1cc(Cc2n[nH]c(=O)c3ccccc23)ccc1F)N1CCN(C(=O)C2CC2)CC1` + CC1OCC2(CCN(c3cnc(Sc4ccnc(N)c4Cl)c(N)n3)CC2)C1N gave an IC50 (second compound 0.1 µM) of 4.71 µM, an IC50 (second compound 0.316 µM) of 3.27 µM and an IC50 (second compound 1 µM) of 4.24 µM. The IC50 (second compound 3.16 µM) was 2.8 µM, the IC50 (second compound 10 µM) was 1.45 µM and the viability, T/C [1] was 95.9%. For the same molecule, the viability, T/C [2] was 89.7%, the viability, T/C [3] was 89% and the viability, T/C [4] was 81.3%. For the same molecule, the viability, T/C [5] was 63.5%, the viability, T/C [6] was 25.3% and the viability, T/C [7] was 78.8%. The viability, T/C [8] was 82.6%, the viability, T/C [9] was 77.3% and the viability, T/C [10] was 78.5%. For the same molecule, the viability, T/C [11] was 50.6%, the viability, T/C [12] was 29.2% and the viability, T/C [13] was 107%. It also gave a viability, T/C [14] of 97.3%, a viability, T/C [15] of 81.8% and a viability, T/C [16] of 59.9%. The viability, T/C [17] was 66.7%, the viability, T/C [18] was 33% and the viability, T/C [19] was 90.8%. It also gave a viability, T/C [20] of 84%, a viability, T/C [21] of 68.6% and a viability, T/C [22] of 70.6%. For the same molecule, the viability, T/C [23] was 48.3%, the viability, T/C [24] was 23.9% and the viability, T/C [25] was 80.9%. The viability, T/C [26] was 72.8%, the viability, T/C [27] was 59.2% and the viability, T/C [28] was 56.6%. For the same molecule, the viability, T/C [29] was 44.1% and the viability, T/C [30] was 29.7%.
